# Results as given in PMC12466757, “1,5-Diarylidene-4-Piperidones as Promising Antifungal Candidates Against Cryptococcus neoformans” (Antibiotics, 2025).
# Columns and labels:
# [1] = system: various human cells, i.e., A498, BEAS-2B, Caco-2, HaCaT, and HepG2
# in vitro [2] = settings: human, Caco-2
# [3] = system: Cryptococcus neoformans (DSM11959); assay: MIC assay against C. neoformans; format: cell-based; settings: 35 °C, 24–48 h
# Magnaporthe oryzae = assay: microbe, parasite or virus in culture; format: cell-based; settings: Pyricularia oryzae, read-out: MIC M. oryzae
# [4] = system: Microdochium bolleyi (DSM 62073); assay: MIC assay, filamentous fungus M. bolleyi; format: cell-based; settings: 48–72 h
# [5] = system: Candida glabrata (DSM 11226); assay: MIC assay, pathogenic yeast C. glabrata; format: cell-based; settings: Nakaseomyces glabratus, DSM11226, 35 °C, 24–48 h
# A. fumigatus (DSM 819) = assay: MIC assay, filamentous fungus A. fumigatus; format: cell-based; settings: Aspergillus fumigatus, DSM819; DSM 819, human pathogen; 35 °C, 24–48 h
# [6] = system: Colletotrichum graminicola (DSM 63127); assay: MIC assay, filamentous fungus C. graminicola; format: cell-based; settings: DSM63127, DSM 63127, plant pathogen, 25 °C, 48–72 h
# [7] = system: Fusarium graminearum (DSM 1095); assay: microbe, parasite or virus in culture; format: cell-based; settings: DSM1095, read-out: MIC F. graminearum
# [8] = system: Candida tropicalis (DSM 9419); assay: MIC assay, pathogenic yeast C. tropicalis; format: cell-based; settings: DSM9419, 35 °C, 24–48 h
# [9] = system: Candida auris (DSM 21092); assay: MIC assay, pathogenic yeast C. auris; format: cell-based; settings: Candidozyma auris, DSM21092, 35 °C, 24–48 h
# [10] = system: Aspergillus flavus (DSM 1959); assay: MIC assay, filamentous fungus A. flavus; format: cell-based; settings: DSM1959, DSM 1959, plant pathogen, 25 °C, 48–72 h
# [11] = system: Penicillium verrucosum (DSM 12639); assay: MIC assay, filamentous fungus P. verrucosum; format: cell-based; settings: DSM12639, DSM 12639, plant pathogen, 25 °C, 48–72 h
# [12] = system: Candida albicans (DSM 10697); assay: MIC assay, pathogenic yeast C. albicans; format: cell-based; settings: DSM10697, 35 °C, 24–48 h
# [13] = system: Trichophyton rubrum (DSM16111); assay: MIC assay, filamentous fungus T. rubrum; format: cell-based; settings: DSM16111, human pathogen, 35 °C, 24–48 h
# in vitro [14] = settings: human
# in vitro [15] = settings: human; remark: listed apart in the source
# in vitro [16] = settings: human; remark: listed apart in the source
# in vitro [17] = settings: human; remark: listed apart in the source
# in vitro [18] = settings: human; remark: listed apart in the source
# [19] = Cytotoxicity, resazurin cell viability assay, Caco-2; settings: human
# [20] = Cytotoxicity, resazurin cell viability assay, HepG2; settings: human
# [21] = Cytotoxicity, resazurin cell viability assay, BEAS-2B; settings: human
# [22] = Cytotoxicity, resazurin cell viability assay, HaCaT; settings: human
# [23] = Cytotoxicity, resazurin cell viability assay, A498; settings: human
# [24] = system: Staphylococcus aureus (ATCC 6538); assay: Antibacterial liquid MIC determination, S. aureus; format: cell-based; settings: ATCC6538, Gram-positive
# [25] = system: Enterobacter cloacae (DSM 30054); assay: Antibacterial liquid MIC determination, E. cloacae; format: cell-based; settings: DSM30054, Gram-negative
# [26] = system: Acinetobacter baumannii (DSM 30007); assay: Antibacterial liquid MIC determination, A. baumannii; format: cell-based; settings: DSM30007, Gram-negative
# [27] = Cryptococcus neoformans, DSM11959, C. neoformans DSM 11959, lowest concentration totally inhibiting growth
# [28] = DSM62073, DSM 62073, plant pathogen, 25 °C
# [29] = C. neoformans DSM 11959, lowest concentration totally inhibiting growth
structure (smiles),measurement,setting,value
CCCCOc1ccc(/C=C2\CN(Cc3ccccc3)C/C(=C\c3ccc(OCCCC)cc3)C2=O)cc1 [2o],CC50 (range depending on the cell model),[1],64.9 to >1000
same,CC50 at 48 h,in vitro [2],455 µM
same,MIC,[3]; [27],125 µM
CCCCOc1ccc(/C=C2\CN(CC)C/C(=C\c3ccc(OCCCC)c(OCCCC)c3OCCCC)C2=O)c(OCCCC)c1OCCCC [2m],MIC,Magnaporthe oryzae,62.5 µM
same,MIC,[4]; [28],> 250 µM
same,CC50 at 48 h,in vitro [2],687 µM
same,MIC,[5],15.6 µM
same,MIC,A. fumigatus (DSM 819),250 µM
same,MIC,[6],> 250 µM
same,MIC,[7],> 250 µM
same,MIC,[8],250 µM
same,MIC,[9],31.2 µM
same,MIC,[10],> 250 µM
same,MIC,[11],> 250 µM
same,MIC,"[3]; Cryptococcus neoformans, DSM11959, C. neoformans DSM 11959, […]",62.5 µM
same,MIC,[12],125 µM
same,MIC,[13],31.2 µM
"CCN1C/C(=C\c2ccc(C)cc2)C(=O)/C(=C/c2ccc(C)cc2)C1 [1b, 1-ethyl-3,5-bis((E)-4-methylbenzylidene)piperidin-4-one]",CC50 at 48 h,in vitro [2],86.2 µM
same,MIC,[3]; [27],250 µM
CCCCOc1ccc(/C=C2\CN(C3CC3)C/C(=C\c3ccc(OCCCC)cc3OCCCC)C2=O)c(OCCCC)c1 [4h],CC50 at 48 h,in vitro [14],> 1000 µM
same,CC50 at 48 h,in vitro [2],> 1000 µM
same,CC50 at 48 h,in vitro [15],> 1000 µM
same,CC50 at 48 h,in vitro [16],> 1000 µM
same,CC50 at 48 h,in vitro [17],> 1000 µM
same,MIC,[3]; [27],250 µM
same,CC50 at 48 h,in vitro [18],> 1000 µM
"OC(Cn1cncn1)(Cn1cncn1)c1ccc(F)cc1F [Fluconazole, reference compound]",MIC,Magnaporthe oryzae,12.5 µM
same,CC50 at 48 h,[19],977 µM
same,MIC,[4]; [28],> 1000 µM
same,CC50 at 48 h,[20]; HepG2 liver cells,> 1000 µM
same,CC50 (range depending on the cell model),[1],841.2 to >1000
same,MIC,[5],250 µM
same,MIC,A. fumigatus (DSM 819),> 1000 µM
same,CC50 at 48 h,[21]; BEAS-2B airway epithelial cells,942 µM
same,MIC,[6],50 µM
same,MIC,[7],> 1000 µM
same,MIC,[8],1000 µM
same,MIC,[9],500 µM
same,CC50 at 48 h,[22]; HaCaT skin cells,841 µM
same,MIC,[10],> 1000 µM
same,MIC,[11],> 1000 µM
same,CC50 at 48 h,[23]; A498 kidney cells,994 µM
same,MIC,[3]; [27],25 µM
same,MIC,[12],6.25 µM
same,MIC,[13],> 1000 µM
COc1ccc(/C=C2\CN(Cc3ccccc3)C/C(=C\c3ccc(OC)cc3OC)C2=O)c(OC)c1 [3a],MIC,[3]; [29],>250 µM
same,MIC,[3]; [27],> 250 µM
C=CCOc1ccc(/C=C2\CN(CC)C/C(=C\c3ccc(OCC=C)cc3OCC=C)C2=O)c(OCC=C)c1 [2g],MIC,[3]; [29],>250 µM
same,MIC,[3]; [27],> 250 µM
"CCN1C/C(=C\c2ccc(OC)cc2OC)C(=O)/C(=C/c2ccc(OC)cc2OC)C1 [2a, 3,5-bis((E)-2,4-dimethoxybenzylidene)-1-ethylpiperidin-4-one]",MIC,[3]; [29],>250 µM
same,MIC,[3]; [27],> 250 µM
CCCCOc1ccc(/C=C2\CC(C(C)(C)C)C/C(=C\c3ccc(OCCCC)cc3OCCCC)C2=O)c(OCCCC)c1 (stereo not shown) [10h],MIC,[3]; [27],> 250 µM
CCCCOc1ccc(/C=C2\CCC/C(=C\c3ccc(OCCCC)cc3OCCCC)C2=O)c(OCCCC)c1 [8h],MIC,[3]; [29],>250 µM
same,MIC,[3]; [27],> 250 µM
CCN1C/C(=C\c2ccc3c(c2)OCO3)C(=O)/C(=C/c2ccc3c(c2)OCO3)C1 [2i],CC50 at 48 h,in vitro [2],152 µM
same,MIC,[3]; [27],250 µM
O=C1/C(=C/c2ccc[nH]2)CN(Cc2ccccc2)C/C1=C\c1ccc[nH]1 [3j],MIC,[24],250 µM
same,CC50 at 48 h,in vitro [2],26.1 µM
same,MIC,[3]; [27],62.5 µM
CCCCOc1ccc(/C=C2\CN(S(C)(=O)=O)C/C(=C\c3ccc(OCCCC)cc3OCCCC)C2=O)c(OCCCC)c1 [6h],MIC,[3]; [29],>250 µM
same,MIC,[3]; [27],> 250 µM
CCN1C/C(=C\c2ccc(Cl)cc2)C(=O)/C(=C/c2ccc(Cl)cc2)C1 [1e],CC50 at 48 h,in vitro [2],98.6 µM
same,MIC,[3]; [27],250 µM
CCN1C/C(=C\c2ccc[nH]2)C(=O)/C(=C/c2ccc[nH]2)C1 [2k],MIC,[25],250 µM
same,MIC,[26],250 µM
same,MIC,[3]; [27],250 µM
CCN1C/C(=C\c2ccccc2F)C(=O)/C(=C/c2ccccc2F)C1 [2j],CC50 at 48 h,in vitro [2],68.3 µM
same,MIC,[3]; [27],250 µM
CCN1C/C(=C\c2ccc(C(F)(F)F)cc2)C(=O)/C(=C/c2ccc(C(F)(F)F)cc2)C1 [1f],CC50 at 48 h,in vitro [2],47 µM
same,MIC,[3]; [27],250 µM
CCN1C/C(=C\c2ccc(C#N)cc2)C(=O)/C(=C/c2ccc(C#N)cc2)C1 [1c],CC50 at 48 h,in vitro [2],70.3 µM
same,MIC,[3]; [27],250 µM
CCN1C/C(=C\c2cnc3ccccc3c2)C(=O)/C(=C/c2cnc3ccccc3c2)C1 [2l],MIC,[24],250 µM
same,CC50 at 48 h,in vitro [2],30 µM
same,MIC,[3]; [27],250 µM
CCCCOc1ccc(/C=C2/C(=O)/C(=C/c3ccc(OCCCC)cc3OCCCC)C3CCC2N3C)c(OCCCC)c1 [2n],MIC,[3]; [27],> 250 µM
"CCN1C/C(=C\c2ccc(OC)cc2)C(=O)/C(=C/c2ccc(OC)cc2)C1 [1a, 1-ethyl-3,5-bis((E)-4-methoxybenzylidene)piperidin-4-one]",CC50 (range depending on the cell model),[1],64.9 to >1000
same,CC50 at 48 h,in vitro [2],314 µM
same,MIC,[3]; [27],125 µM
CCCCOc1ccc(/C=C2\CN(Cc3ccccc3)C/C(=C\c3ccc(OCCCC)cc3OCCCC)C2=O)c(OCCCC)c1 [3h],MIC,Magnaporthe oryzae,7.8 µM
same,MIC,"[4]; DSM62073, 25 °C",7.8 µM
same,MIC,[4]; [28],31.2 µM
same,CC50 at 48 h,in vitro [2],629 µM
same,MIC,[5],7.8 µM
same,MIC,A. fumigatus (DSM 819),31.2 µM
same,MIC,[6],250 µM
same,MIC,[7],125 µM
same,MIC,[8],125 µM
same,MIC,[9],7.8 µM
same,MIC,[10],31.2 µM
same,MIC,[11],62.5 µM
same,MIC,[3]; [27],7.8 µM
same,MIC,[12],62.5 µM
same,MIC,[13],7.8 µM
CCCCOc1ccc(/C=C2\CN(C(=O)OCc3ccccc3)C/C(=C\c3ccc(OCCCC)cc3OCCCC)C2=O)c(OCCCC)c1 [7h],MIC,[3]; [29],>250 µM
same,MIC,[3]; [27],> 250 µM
CCN1C/C(=C\c2ccc([N+](=O)[O-])cc2)C(=O)/C(=C/c2ccc([N+](=O)[O-])cc2)C1 [1d],CC50 at 48 h,[19],95.4 µM
same,CC50 at 48 h,[20],314 µM
same,CC50 at 48 h,[21],364 µM
same,CC50 at 48 h,[22],163 µM
same,CC50 at 48 h,[23],486 µM
same,MIC,[3]; [27],250 µM
CCCCOc1ccc(/C=C2\CN(C(=O)OC(C)(C)C)C/C(=C\c3ccc(OCCCC)cc3OCCCC)C2=O)c(OCCCC)c1 [5h],MIC,[3]; [29],>250 µM
same,MIC,[3]; [27],> 250 µM
CCCCOc1ccc(/C=C2\CC(C)C/C(=C\c3ccc(OCCCC)cc3OCCCC)C2=O)c(OCCCC)c1 (stereo not shown) [9h],MIC,[3]; [27],> 250 µM
"CCCCOc1ccc(/C=C2\CN(CC)C/C(=C\c3ccc(OCCCC)cc3OCCCC)C2=O)c(OCCCC)c1 [2h, 3,5-bis((E)-2,4-dibutoxybenzylidene) -1-ethylpiperidin-4-one]",MIC,Magnaporthe oryzae,15.6 µM
same,MIC,[4]; [28],62.5 µM
same,CC50 at 48 h,in vitro [2],697 µM
same,MIC,[5],31.2 µM
same,MIC,A. fumigatus (DSM 819),125 µM
same,MIC,[6],> 250 µM
same,MIC,[7],> 250 µM
same,MIC,[8],250 µM
same,MIC,[9],31.2 µM
same,MIC,[10],> 250 µM
same,MIC,[11],125 µM
same,MIC,[3]; [27],31.2 µM
same,MIC,[12],250 µM
same,MIC,[13],62.5 µM
CCCCOc1ccc(/C=C2\CN(Cc3ccccc3)C/C(=C\c3ccc(OCCCC)c(OCCCC)c3)C2=O)cc1OCCCC [3iso-h],MIC,Magnaporthe oryzae,15.6 µM
same,MIC,[4]; [28],62.5 µM
same,CC50 at 48 h,in vitro [2],> 1000 µM
same,MIC,[5],62.5 µM
same,MIC,A. fumigatus (DSM 819),125 µM
same,MIC,[6],125 µM
same,MIC,[7],> 250 µM
same,MIC,[8],125 µM
same,MIC,[9],31.2 µM
same,MIC,[10],> 250 µM
same,MIC,[11],125 µM
same,MIC,[3]; [27],62.5 µM
same,MIC,[12],250 µM
same,MIC,[13],125 µM
